Results: patent US12447153B2, “HER2 mutation inhibitors” (Array BioPharma Inc., priority 2021, dated 2025)

Experiments:
ErbB2 WT = ErbB2 WT (Homo sapiens (Human), UniProt P04626); experiment: ErbB Enzyme Assay (HTRF KinEASE-TK), Assay 2; format: biochemical
EGFR = EGFR (Homo sapiens (Human), UniProt P00533); experiment: ErbB Enzyme Assay (HTRF KinEASE-TK), Assay 3; format: biochemical
[1] = target: ErbB2 with Exon 20 YVMA insertion (HER2-YVMA) (Homo sapiens (Human), UniProt P04626, INS775YVMA); experiment: Cellular Phosphorylation Assay, Assay 4 (constitutive ErbB2 phosphorylation, NIH 3T3 cells); format: cell-based
EGFR wild type (EGFR WT) = EGFR wild type (EGFR WT) (Homo sapiens (Human), UniProt P00533); experiment: Cellular Phosphorylation Assay, Assay 5 (EGF-stimulated EGFR phosphorylation, NIH 3T3 cells); format: cell-based
BCRP = BCRP (Homo sapiens (Human), UniProt Q9UNQ0); experiment: BCRP MDCKII efflux assay (Assay 7); format: in vitro ADME; conditions: dog; efflux ratio Papp(B-A)/Papp(A-B), BCRP MDCKII cells; read-out: Assay 7 Pe Ratio
Experimental: Assay conditions included with and without the BCRP-specific inhibitor, KO143, at a concentration of 0.3 μM to ascertain the contribution of BCRP to the efflux value of the test compound.
Final organic concentration in the assay was 1%.

MDR1 (P-gp) = MDR1 (P-gp) (Homo sapiens (Human), UniProt P08183); experiment: in vitro; conditions: pig, LLC-PK1
[2] = EGF-stimulated EGFR WT phosphorylation
[3] = cellular ErbB2 YVMA phosphorylation
[4] = cellular EGFR WT phosphorylation, EGF-stimulated

Chain of MDR1 (P-gp) (P08183 whole entry): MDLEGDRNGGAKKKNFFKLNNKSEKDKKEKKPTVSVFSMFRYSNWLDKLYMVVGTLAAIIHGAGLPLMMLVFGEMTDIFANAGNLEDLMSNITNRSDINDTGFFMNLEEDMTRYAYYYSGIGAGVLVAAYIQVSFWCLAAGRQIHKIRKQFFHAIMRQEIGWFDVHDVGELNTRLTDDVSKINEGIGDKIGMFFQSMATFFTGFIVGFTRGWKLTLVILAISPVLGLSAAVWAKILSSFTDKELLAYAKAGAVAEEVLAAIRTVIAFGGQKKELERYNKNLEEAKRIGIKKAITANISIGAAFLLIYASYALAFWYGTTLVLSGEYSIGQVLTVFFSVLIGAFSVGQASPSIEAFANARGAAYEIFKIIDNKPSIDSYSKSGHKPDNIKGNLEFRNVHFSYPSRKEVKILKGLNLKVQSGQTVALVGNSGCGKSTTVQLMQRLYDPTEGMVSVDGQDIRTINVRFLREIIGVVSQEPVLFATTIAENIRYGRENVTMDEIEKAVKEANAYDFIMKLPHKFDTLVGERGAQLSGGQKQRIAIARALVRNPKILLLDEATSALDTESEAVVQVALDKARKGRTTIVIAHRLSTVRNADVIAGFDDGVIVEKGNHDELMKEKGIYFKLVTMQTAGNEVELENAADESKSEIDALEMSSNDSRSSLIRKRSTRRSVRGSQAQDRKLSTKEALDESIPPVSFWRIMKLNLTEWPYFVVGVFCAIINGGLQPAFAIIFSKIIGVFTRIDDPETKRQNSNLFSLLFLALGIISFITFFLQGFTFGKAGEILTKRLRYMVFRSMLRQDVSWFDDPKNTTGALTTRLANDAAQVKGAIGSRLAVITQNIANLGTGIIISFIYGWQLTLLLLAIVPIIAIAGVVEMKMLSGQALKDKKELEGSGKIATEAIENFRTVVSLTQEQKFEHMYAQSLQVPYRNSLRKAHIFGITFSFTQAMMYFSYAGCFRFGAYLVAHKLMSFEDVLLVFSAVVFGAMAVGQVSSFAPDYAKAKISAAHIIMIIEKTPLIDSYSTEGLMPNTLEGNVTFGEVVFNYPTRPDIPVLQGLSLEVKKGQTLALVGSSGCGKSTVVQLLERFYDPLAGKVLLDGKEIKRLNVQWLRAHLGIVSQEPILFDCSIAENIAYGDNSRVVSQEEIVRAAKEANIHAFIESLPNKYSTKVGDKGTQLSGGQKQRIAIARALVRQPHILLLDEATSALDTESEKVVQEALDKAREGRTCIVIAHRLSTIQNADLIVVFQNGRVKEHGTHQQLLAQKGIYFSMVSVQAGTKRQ
Chain of ErbB2 with Exon 20 YVMA insertion (HER2-YVMA) (P04626 other isoform, or with tags, fused parts or gaps ins YVMA behind 775): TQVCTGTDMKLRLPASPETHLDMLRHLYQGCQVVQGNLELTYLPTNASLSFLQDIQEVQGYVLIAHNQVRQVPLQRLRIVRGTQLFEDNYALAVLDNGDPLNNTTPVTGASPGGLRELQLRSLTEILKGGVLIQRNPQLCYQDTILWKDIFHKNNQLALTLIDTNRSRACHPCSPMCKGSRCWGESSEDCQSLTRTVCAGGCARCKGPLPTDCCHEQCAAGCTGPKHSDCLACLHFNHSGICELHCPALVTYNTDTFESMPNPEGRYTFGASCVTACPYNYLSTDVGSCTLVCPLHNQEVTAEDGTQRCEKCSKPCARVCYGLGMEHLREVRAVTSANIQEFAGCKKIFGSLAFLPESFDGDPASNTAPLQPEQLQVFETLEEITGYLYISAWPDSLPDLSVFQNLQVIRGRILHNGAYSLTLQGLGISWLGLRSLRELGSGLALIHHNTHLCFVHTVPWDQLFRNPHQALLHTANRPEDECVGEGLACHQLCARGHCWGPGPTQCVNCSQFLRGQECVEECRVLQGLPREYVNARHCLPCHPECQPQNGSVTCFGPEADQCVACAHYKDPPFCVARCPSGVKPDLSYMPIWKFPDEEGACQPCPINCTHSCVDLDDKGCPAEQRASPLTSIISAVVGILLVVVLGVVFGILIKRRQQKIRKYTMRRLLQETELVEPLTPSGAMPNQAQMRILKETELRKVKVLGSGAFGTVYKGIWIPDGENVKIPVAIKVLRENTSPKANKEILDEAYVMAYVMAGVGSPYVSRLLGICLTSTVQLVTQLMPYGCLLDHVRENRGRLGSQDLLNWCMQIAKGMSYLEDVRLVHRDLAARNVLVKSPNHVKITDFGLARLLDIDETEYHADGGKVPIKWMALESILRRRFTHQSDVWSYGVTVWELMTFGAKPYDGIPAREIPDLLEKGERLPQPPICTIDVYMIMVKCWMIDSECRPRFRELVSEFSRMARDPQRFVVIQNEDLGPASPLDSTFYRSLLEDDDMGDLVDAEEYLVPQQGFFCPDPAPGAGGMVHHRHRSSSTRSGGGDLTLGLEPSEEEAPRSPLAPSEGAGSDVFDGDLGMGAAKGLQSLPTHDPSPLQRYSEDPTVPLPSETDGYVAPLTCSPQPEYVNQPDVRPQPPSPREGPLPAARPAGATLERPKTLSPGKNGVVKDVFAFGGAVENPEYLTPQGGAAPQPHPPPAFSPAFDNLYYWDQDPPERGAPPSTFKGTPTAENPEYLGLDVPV
Chain of EGFR wild type (EGFR WT) (P00533 25-1210): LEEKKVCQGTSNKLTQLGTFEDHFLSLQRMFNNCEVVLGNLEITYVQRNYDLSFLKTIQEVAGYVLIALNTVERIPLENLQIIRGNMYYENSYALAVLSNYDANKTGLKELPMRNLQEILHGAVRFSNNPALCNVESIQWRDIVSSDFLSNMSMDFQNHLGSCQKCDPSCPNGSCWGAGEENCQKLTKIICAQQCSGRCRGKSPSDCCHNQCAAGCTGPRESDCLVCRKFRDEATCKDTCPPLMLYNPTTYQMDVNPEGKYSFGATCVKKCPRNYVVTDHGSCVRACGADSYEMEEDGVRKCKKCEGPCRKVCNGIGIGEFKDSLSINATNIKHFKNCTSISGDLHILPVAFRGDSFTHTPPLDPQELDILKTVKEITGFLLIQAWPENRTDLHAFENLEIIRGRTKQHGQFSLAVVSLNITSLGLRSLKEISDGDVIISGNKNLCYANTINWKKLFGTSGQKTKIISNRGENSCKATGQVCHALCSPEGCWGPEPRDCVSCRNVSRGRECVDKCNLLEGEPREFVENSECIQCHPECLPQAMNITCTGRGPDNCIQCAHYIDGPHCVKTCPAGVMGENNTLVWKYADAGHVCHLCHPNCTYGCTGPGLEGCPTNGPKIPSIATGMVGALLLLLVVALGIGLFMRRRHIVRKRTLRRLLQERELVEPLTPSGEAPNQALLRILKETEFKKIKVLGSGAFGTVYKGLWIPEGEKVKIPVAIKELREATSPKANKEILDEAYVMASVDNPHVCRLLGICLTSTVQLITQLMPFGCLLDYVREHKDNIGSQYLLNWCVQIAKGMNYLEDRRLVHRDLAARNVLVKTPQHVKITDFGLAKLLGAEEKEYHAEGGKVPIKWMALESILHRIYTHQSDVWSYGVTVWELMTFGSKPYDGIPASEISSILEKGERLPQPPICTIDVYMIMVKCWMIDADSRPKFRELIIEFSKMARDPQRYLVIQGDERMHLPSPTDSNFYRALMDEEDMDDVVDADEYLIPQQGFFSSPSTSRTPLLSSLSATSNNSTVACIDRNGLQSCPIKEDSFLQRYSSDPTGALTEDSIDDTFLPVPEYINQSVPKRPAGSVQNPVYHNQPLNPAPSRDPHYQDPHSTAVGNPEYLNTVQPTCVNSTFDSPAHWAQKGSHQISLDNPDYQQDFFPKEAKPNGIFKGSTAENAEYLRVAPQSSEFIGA
Chain of EGFR (P00533 25-1210): as above

IC50 (ErbB2 WT; ErbB2 WT enzyme) | IC50 (EGFR; EGFR enzyme) | IC50 ([1]; ErbB2 YVMA phosphorylation) | IC50 (EGFR wild type (EGFR WT); [2]) | efflux ratio at 2 h, 1 µM (BCRP) | efflux ratio at 2 h, 1 µM (MDR1 (P-gp)) | IC50 (ErbB2 WT; ErbB2 WT enzyme assay) | IC50 (EGFR; EGFR enzyme assay) | IC50 [1, 3] | IC50 (EGFR wild type (EGFR WT); [4]) | Compound
36.7 nM | 955 nM | 24.3 nM | 2250 nM | 5.2 | 1.8 | – | – | – | – | C=CC(=O)N1CCN(c2ccc3ncnc(Nc4ccc(Oc5cnc6c(c5)ncn6C)c(Cl)c4F)c3n2)CC1(C)C [Example 239, 1-(4-(4-((3-chloro-2-fluoro-4-((3-methyl-3H-imidazo[4,5-b]pyridin-6-yl)oxy)phenyl)amino)pyrido[3,2-d]pyrimidin-6-yl)-2,2-dimethylpiperazin-1-yl)prop-2-en-1-one]
5.5 nM | 49.3 nM | 5.3 nM | 46.8 nM | 2.6 | 2.3 | – | – | – | – | C=CC(=O)N1CCC(Oc2nc3c(Nc4ccc(Oc5ccn6ncnc6c5)c(Cl)c4F)ncnc3cc2OC)CC1 [Example 39, 1-(4-((4-((4-([1,2,4]triazolo[1,5-a]pyridin-7-yloxy)-3-chloro-2-fluorophenyl)amino)-7-methoxypyrido[3,2-d]pyrimidin-6-yl)oxy)piperidin-1-yl)prop-2-en-1-one]
– | – | – | – | 4.8 | 1.5 | 494 nM | ≥ 10000 nM | 27.3 nM | ≥ 5000 nM | C=CC(=O)N1C[C@@H]2C[C@H]1CN(c1ccc3ncnc(Nc4ccc(Oc5ccn6ncnc6c5)c(C)c4F)c3n1)C2 [Example 251]
– | – | – | – | 1.1 | 1.6 | 21 nM | 942 nM | 20.1 nM | 494 nM | C=CC(=O)N1CCC(c2ccc3ncnc(Nc4ccc(Oc5ccn6ncnc6c5)c(C)c4F)c3n2)CC12CC2 (stereo not drawn) [Example 270]
237 nM | ≥ 10000 nM | 17.8 nM | ≥ 5000 nM | 2.7 | 1.6 | – | – | – | – | C=CC(=O)N1C[C@H]2C[C@@H]1CN(c1ccc3ncnc(Nc4cc(Cl)c(Oc5ccc6c(c5)ncn6C)cc4F)c3n1)C2 [Example 107, 1-((1S,5R)-3-(4-((5-chloro-2-fluoro-4-((1-methyl-1H-benzo[d]imidazol-5-yl)oxy)phenyl)amino)pyrido[3,2-d]pyrimidin-6-yl)-3,6-diazabicyclo[3.2.1]octan-6-yl)prop-2-en-1-one]
177 nM | ≥ 10000 nM | 15.8 nM | ≥ 5000 nM | 1.6 | 0.9 | – | – | – | – | C=CC(=O)N1CCN(c2ccc3ncnc(Nc4ccc(Oc5cnc6c(c5)ncn6C)c(C)c4F)c3n2)C[C@H]1C1CC1 [Example 165, (R)-1-(2-cyclopropyl-4-(4-((2-fluoro-3-methyl-4-((3-methyl-3H-imidazo[4,5-b]pyridin-6-yl)oxy)phenyl)amino)pyrido[3,2-d]pyrimidin-6-yl)piperazin-1-yl)prop-2-en-1-one]
– | – | – | – | 2.7 | 1.4 | 76.1 nM | 9630 nM | 34.7 nM | ≥ 5000 nM | C=CC(=O)N1CCCC(c2ccc3ncnc(Nc4cc(C)c(Oc5ccn6ncnc6c5)cc4F)c3n2)CC1 (stereo not drawn) [Example 368]
14.3 nM | 6540 nM | 22.7 nM | 928 nM | 1.8 | 1.3 | – | – | – | – | C=CC(=O)N1CCN(c2ccc3ncnc(Nc4ccc(Oc5ccn6ncnc6c5)c(C)c4F)c3n2)CC1(C)C [Example 31, 1-(4-(4-((4-([1,2,4]triazolo[1,5-a]pyridin-7-yloxy)-2-fluoro-3-methylphenyl)amino)pyrido[3,2-d]pyrimidin-6-yl)-2,2-dimethylpiperazin-1-yl)prop-2-en-1-one]
22.1 nM | 4170 nM | 25.1 nM | ≥ 5000 nM | 1.8 | 6.8 | – | – | – | – | C=CC(=O)N1C[C@H]2C[C@H](c3ccc4ncnc(Nc5ccc(Oc6ccc7c(c6)ncn7C)c(C)c5F)c4n3)C[C@H]2C1 [Example 138, 1-((3aR,5s,6aS)-5-(4-((2-fluoro-3-methyl-4-((1-methyl-1H-benzo[d]imidazol-5-yl)oxy)phenyl)amino)pyrido[3,2-d]pyrimidin-6-yl)hexahydrocyclopenta[c]pyrrol-2(1H)-yl)prop-2-en-1-one]
30.8 nM | 5570 nM | 9.1 nM | 4580 nM | 4 | 1.9 | – | – | – | – | C=CC(=O)N1CCCC(c2ccc3ncnc(Nc4ccc(Oc5ccc6c(c5)ncn6C)c(C)c4)c3n2)CC1 (stereo not drawn) [Example 121, 1-(4-(4-((3-methyl-4-((1-methyl-1H-benzo[d]imidazol-5-yl)oxy)phenyl)amino)pyrido[3,2-d]pyrimidin-6-yl)azepan-1-yl)prop-2-en-1-one]
– | – | – | – | 2 | 0.7 | 183 nM | ≥ 10000 nM | 33.2 nM | ≥ 5000 nM | C=CC(=O)N1C[C@H]2CC[C@@H]1[C@H](c1ccc3ncnc(Nc4ccc(Oc5cnc6c(c5)ncn6C)c(C)c4F)c3n1)C2 [Example 426]
45.5 nM | 1680 nM | 12.8 nM | 555 nM | – | 10.2 | – | – | – | – | C=CC(=O)N1CCC(Oc2ccc3ncnc(Nc4ccc(Oc5ccn6ccnc6c5)c(C)c4)c3n2)CC1 [Example 15, 1-(4-((4-((4-(imidazo[1,2-a]pyridin-7-yloxy)-3-methylphenyl)amino)pyrido[3,2-d]pyrimidin-6-yl)oxy)piperidin-1-yl)prop-2-en-1-one]
41.1 nM | 3800 nM | 16 nM | ≥ 5000 nM | – | 3.9 | – | – | – | – | C=CC(=O)N1C[C@@H](c2ccc3ncnc(Nc4cc(C)c(Oc5ccc6c(c5)ncn6C)cc4F)c3n2)C[C@@H]1C [Example 190, 1-((2S,4S)-4-(4-((2-fluoro-5-methyl-4-((1-methyl-1H-benzo[d]imidazol-5-yl)oxy)phenyl)amino)pyrido[3,2-d]pyrimidin-6-yl)-2-methylpyrrolidin-1-yl)prop-2-en-1-one]
48.3 nM | 2110 nM | 14 nM | 1220 nM | – | 2.7 | – | – | – | – | C=CC(=O)N1CCC(Oc2ccc3ncnc(Nc4ccc(Oc5ccn6ncnc6c5)c(C)c4F)c3n2)CC1 [Example 17, 1-(4-((4-((4-([1,2,4]triazolo[1,5-a]pyridin-7-yloxy)-2-fluoro-3-methylphenyl)amino)pyrido[3,2-d]pyrimidin-6-yl)oxy)piperidin-1-yl)prop-2-en-1-one]

Compound | IC50 (ErbB2 WT; ErbB2 WT enzyme) | IC50 (EGFR; EGFR enzyme) | IC50 ([1]; ErbB2 YVMA phosphorylation) | IC50 (EGFR wild type (EGFR WT); [2]) | efflux ratio at 2 h, 1 µM (BCRP) | efflux ratio at 2 h, 1 µM (MDR1 (P-gp)) | IC50 (ErbB2 WT; ErbB2 WT enzyme assay) | IC50 (EGFR; EGFR enzyme assay) | IC50 [1, 3] | IC50 (EGFR wild type (EGFR WT); [4])
C=CC(=O)N1C2CC1CN(c1ccc3ncnc(Nc4cc(C)c(Oc5ccn6ncnc6c5)cc4F)c3n1)C2 [Example 43, 1-(3-(4-((4-([1,2,4]triazolo[1,5-a]pyridin-7-yloxy)-2-fluoro-5-methylphenyl)amino)pyrido[3,2-d]pyrimidin-6-yl)-3,6-diazabicyclo[3.1.1]heptan-6-yl)prop-2-en-1-one] | 120 nM | ≥ 10000 nM | 21.3 nM | ≥ 5000 nM | 4.1 | 3 | – | – | – | –
